Assay results taken from patent US20120269815A1, “NEUROTROPHINS AND USES THEREOF” (Regents of the University of Minnesota, priority 2008, published 2012).
No end group written: not given here.

Tests used:
[1] = Fear-potentiated startle after ICV TUF1 peptide infusion; type: in vivo, rat; conditions: adult male rats
Description: (§1) a) Intra-cerebroventricular (ICV) Cannulation Male Sprague-Dawley rats weighing 250-400 grams were anesthetized with ketamine (100 mg/kg) and xylazine (7 mg/kg) and placed in a stereotaxic device (David Kopf Instruments Corp., Tunjunga, Calif.) using atraumatic ear bars. An incision of the skin overlying the skull was made and anchor screws were inserted into the skull. Burr holes were drilled to allow the guide cannula to pass into the brain. The guide cannula (22-gauge, C313G; Plastics One, Roanoke, Va.) was placed at 0 mm posterior, 1.2 mm lateral and 3.5 mm ventral to bregma. The cannula was affixed using epoxy glue (Loctite 444; McMaster-Carr, Chicago, Ill.) followed by dental acrylic (Hygienic perm reline & repair resin, Type II, Class I; Henry Schein, Inc., Melville, N.Y.). The cannula was sealed and kept open by insertion of a ‘dummy’ cannula. […]
(§2) For fear potentiated startle, shock sensitization, and prepulse inhibition testing, animals were trained and tested in four identical 7.5 cm×9 cm×17 cm stabilimeter devices. […] Shock intensity was measured with a 1-kΩ resistor across a differential channel of an oscilloscope in series with a 100-kΩ resistor connected between two floor bars in each cage. Current was defined as the RMS voltage across the resistor and calculated in mA as 0.707×0.5 ×peak-to-peak voltage. […]

[2] = system: GT1-1 cells; conditions: 24 hr serum deprivation, 3.6 μM peptide
Description: GT1-1 cell survival assays: GT1-1 cells are immortalized cell line derived from mouse embryonic hypothalamus (a gift from Dr. Richard Weiner, UCSF).
a) Suppression of TUF1 expression by RNAi GT1-1 cells were seeded at 100,000 cells/well in a 12-well plate (as described in Example 1) and incubated for 72 hours at 37° C. supplemented with 5% CO2. Fresh growth media were added for at least 1 hour before cells were transfected with negative control RNAi or TUF1-specific RNAi (150 picomoles diluted in OptiMEM, Stealth RNAi, Invitrogen Corp., Carlsbad, Calif.) using Fugene6 (1.5 μl/200 μl medium, Roche Diagnostics Corp., Indianapolis, Ind.) and incubated overnight. […] Cells were then lifted from the well by adding Trypsin-EDTA (Invitrogen Corp., Carlsbad, Calif.) and surviving cells were counted by Trypan Blue exclusion using a hemocytometer and an inverted microscope. […]
b) Repression of TUF1 activity by anti-TUF1 peptide antibody (IgG) GT1-1 cells were seeded at 100,000 cells/well and incubated for 72 hours as described above. […] Surviving cells were lifted from wells and counted as described in part (a). […]
Cells were treated with serum-free media supplemented with 0.0 μg/ml, 2.5 μg/ml (1.8 μM), or 5.0 μg/m (3.6 μM) TUF1 peptide. Surviving cells were counted at 24 hours, 48 hours, and 72 hours of incubation as described in part (a). […]

[3] = system: Cortical neurons and glia; experiment: Glutamate-induced excitotoxicity in cultured cortical neurons; type: cell-based, mice; conditions: 500 μM glutamate, then 0.2-1.8 μM peptide for 24 hours
Description: To assess the trophic effect of TUF1 peptide on primary culture neurons, we assayed the effect of TUF1 supplementation on glutamate-induced excitotoxicity in neuronal cultures. Cortical neurons and glia were cultured from newborn mice for seven days. Cultures were then treated with 500 μM glutamate (diluted in N2tox solution, Invitrogen Corp., Carlsbad, Calif.) and incubated at 37° C. for ten minutes. Glutamate was removed from cultures by two washes with EBSS media (Invitrogen Corp., Carlsbad, Calif.). Cultures were then incubated in EBSS media supplemented with 0.0 μM, 0.2 μM, 0.4 μM, 0.9 μM, or 1.8 μM TUF1 peptide for 24 hours. Surviving neurons from cultures were manually counted by Trypan Blue exclusion using an inverted microscope. Values are means±SD, n=6-8/group.

[4] = Prepulse inhibition of startle after ICV TUF1 peptide infusion; type: in vivo, rat; conditions: adult male rats, 1.0 μg or 10 μg ICV
Description: as §1, §2

[5] = Food consumption after ICV TUF1 peptide infusion; type: in vivo; conditions: rat, ICV administration
Description: a) Intra-cerebroventricular (ICV) Cannulation Male Sprague-Dawley rats weighing 250-400 grams were anesthetized with ketamine (100 mg/kg) and xylazine (7 mg/kg) and placed in a stereotaxic device (David Kopf Instruments Corp., Tunjunga, Calif.) using atraumatic ear bars. An incision of the skin overlying the skull was made and anchor screws were inserted into the skull. Burr holes were drilled to allow the guide cannula to pass into the brain. The guide cannula (22-gauge, C313G; Plastics One, Roanoke, Va.) was placed at 0 mm posterior, 1.2 mm lateral and 3.5 mm ventral to bregma. The cannula was affixed using epoxy glue (Loctite 444; McMaster-Carr, Chicago, Ill.) followed by dental acrylic (Hygienic perm reline & repair resin, Type II, Class I; Henry Schein, Inc., Melville, N.Y.). The cannula was sealed and kept open by insertion of a ‘dummy’ cannula.
b) TUF1 Peptide Infusion 0 μg, 1 μg, or 10 μg TUF1 peptide diluted in artificial cerebrospinal fluid (aCSF, Harvard Apparatus, Holliston, Mass.) was injected into the brain through the in-dwelling cannulae immediately prior to behavioral measurement (described below). […]
Food intake, in grams, was measured by weighing food in the hopper daily for the two days prior to drug infusion and for the drug infusion days, and calculating the amount eaten by subtracting each day's food weight from that of the previous day.

With AYKSYVRALPLL [TUF1[43-54]] the shock reactivity ([1]; 1.0 μg or 10 μg ICV) was “No effect”, the fear potentiated startle ([1]; 1.0 μg or 10 μg via lateral ventricle cannulae, vs control subjects) was “reduced fear potentiated startle” and the “effect on cell survival” value [2] was “no effect”. For the same sequence, the “neural excitotoxicity induced by glutamate” value [3] was “reduces neural excitotoxicity induced by glutamate”, the pre-pulse inhibition [4] was “No effect” and the food consumption [5] was “influences food consumption”.
